From the CheMixHub ionic liquid set

Test: xn = mol fraction of the nth substance listed

C[N+](C)(C)CCC[n+]1ccccc1.N#C[N-]C#N.N#C[N-]C#N + CC#N
100 kPa
Settings | viscosity [mPa·s]
283.15 K, x1 = 0.7001 | 857
288.15 K, x1 = 0.8997 | 1336
288.15 K, x1 = 1 | 3879
293.15 K, x1 = 0.1999 | 10.8
293.15 K, x1 = 0.3997 | 75.8
293.15 K, x1 = 1 | 2191
298.15 K, x1 = 0.8997 | 561
303.15 K, x1 = 0.0999 | 3
303.15 K, x1 = 0.2998 | 24.3
303.15 K, x1 = 0.7998 | 271
308.15 K, x1 = 0.1999 | 7.71
318.15 K, x1 = 0.2998 | 16
323.15 K, x1 = 0.0999 | 2.43
323.15 K, x1 = 1 | 210
333.15 K, x1 = 0.1999 | 5.08
333.15 K, x1 = 0.6002 | 37.6

C[n+]1ccn(CCCC#N)c1.O=S(=O)([O-])C(F)(F)F + CC#N
101 kPa
Settings | electrical conductivity [S/m] | viscosity [mPa·s]
288.15 K, x1 = 0.1002 | 2.7 | 1.65
288.15 K, x1 = 0.2994 | 1.04 | 16.49
288.15 K, x1 = 0.5 | 0.185 | 109.8
293.15 K, x1 = 0.6005 | 0.22 | 119.8
298.15 K, x1 = 0.7996 | 0.114 | 307
303.15 K, x1 = 0.9007 | 0.082 | 330
303.15 K, x1 = 1 | 0.06 | 422
308.15 K, x1 = 0.2994 | 1.7 | 9.19
308.15 K, x1 = 1 | 0.08 | 310
313.15 K, x1 = 0.2002 | 2.88 | 3.74
313.15 K, x1 = 0.5 | 0.575 | 36.34
313.15 K, x1 = 0.7996 | 0.239 | 133.1
318.15 K, x1 = 0.1002 | 3.76 | 1.06
318.15 K, x1 = 0.5 | 0.679 | 29.94
318.15 K, x1 = 0.698 | 0.351 | 73.7
318.15 K, x1 = 0.9007 | 0.168 | 135
323.15 K, x1 = 0.1002 | 3.95 | 0.99
323.15 K, x1 = 0.6005 | 0.7 | 32.11

NCCN1CCNCC1 + CC(=O)[O-].CCCC[n+]1ccn(C)c1 + O
viscosity [mPa·s], 101 kPa
Settings | 298.15 K | 303.15 K | 308.15 K | 313.15 K | 318.15 K | 323.15 K | 328.15 K | 333.15 K
x2 = 0.03479, x1 = 0.0177 | 3.7 | 3.32 | 3.04 | 2.97 | 2.6 | 2.31 | 2.16 | 1.97
x2 = 0.03897, x1 = 0.01333 | 3.73 | 3.62 | 3.32 | 2.99 | 2.61 | 2.41 | 2.31 | 2.11
x2 = 0.04311, x1 = 0.00893 | 3.76 | 3.66 | 3.32 | 3.02 | 2.64 | 2.48 | 2.34 | 2.21

c1c[nH]cn1 + CC(C)C[P+](C)(CC(C)C)CC(C)C.Cc1ccc(S(=O)(=O)[O-])cc1
Settings | viscosity [mPa·s]
313.09 K, 101.33 kPa, x2 = 0.5 | 181

CC[n+]1ccccc1.N#C[N-]C#N + CC(C)O
100 kPa
Settings | viscosity [mPa·s]
288.15 K, x2 = 0.2997 | 15.1
293.15 K, x2 = 0.1055 | 18
298.15 K, x2 = 0.4023 | 9.28
303.15 K, x2 = 0.5998 | 5.49
308.15 K, x2 = 0.7006 | 3.8
308.15 K, x2 = 0.8997 | 2.27
313.15 K, x2 = 0 | 12.5
313.15 K, x2 = 0.5998 | 4.42
313.15 K, x2 = 0.7006 | 3.43
313.15 K, x2 = 0.8007 | 2.66
318.15 K, x2 = 0.5998 | 3.99
318.15 K, x2 = 0.7006 | 3.11

CCCCCCCC[N+](C)(CCCCCCCC)CCCCCCCC.[Br-] + CCCCCCCCCC(=O)O
100 kPa, x1 = 0.3333
Settings | viscosity [mPa·s]
293 K | 810
298 K | 570
303 K | 410
308 K | 310
333 K | 84

CC[N+](CC)(CC)CC.[Br-] + CCCCCCCCCCCCCCn1cc[n+](C)c1.[Br-] + O
electrical conductivity [S/m], 101 kPa, frequency 0.001 MHz
Settings | 298.15 K | 308.15 K | 318.15 K
x2 = 0, x1 = 1.802e-05 | 0.0115 | 0.0142 | 0.0177
x2 = 0, x1 = 3.604e-05 | 0.0198 | 0.024 | 0.0294
x2 = 0, x1 = 9.009e-05 | 0.0417 | 0.0509 | 0.0613

O=P([O-])([O-])[O-].[Na+].[Na+].[Na+] + CCCCCCCCCCCC[N+](C)(C)C.[Br-] + O
298.15 K, 101 kPa
Settings | electrical conductivity [S/m]
x2 = 0, x1 = 0.0001802 | 0.411
x2 = 0, x1 = 0.001799 | 2.052
x2 = 5.23e-06, x1 = 0.0001802 | 0.411
x2 = 7.86e-06, x1 = 0.001799 | 2.048
x2 = 1.209e-05, x1 = 0.0001802 | 0.4123
x2 = 1.591e-05, x1 = 0.001799 | 2.047
x2 = 1.895e-05, x1 = 0.0001802 | 0.4139
x2 = 2.633e-05, x1 = 0.001799 | 2.047
x2 = 2.887e-05, x1 = 0.0001802 | 0.4171
x2 = 3.573e-05, x1 = 0.0001802 | 0.4194
x2 = 3.912e-05, x1 = 0.001799 | 2.048
x2 = 4.223e-05, x1 = 0.0001802 | 0.4213
x2 = 4.89e-05, x1 = 0.0001802 | 0.4235
x2 = 5.21e-05, x1 = 0.001799 | 2.049
x2 = 5.756e-05, x1 = 0.0001802 | 0.4261
x2 = 6.605e-05, x1 = 0.0001802 | 0.429
x2 = 6.673e-05, x1 = 0.001799 | 2.051
x2 = 7.416e-05, x1 = 0.0001801 | 0.4318
x2 = 8.172e-05, x1 = 0.001799 | 2.054
x2 = 8.246e-05, x1 = 0.0001801 | 0.4346
x2 = 9.058e-05, x1 = 0.0001801 | 0.4375
x2 = 9.852e-05, x1 = 0.0001801 | 0.4405
x2 = 9.872e-05, x1 = 0.001799 | 2.059
x2 = 0.000107, x1 = 0.0001801 | 0.444
x2 = 0.0001133, x1 = 0.001799 | 2.063
x2 = 0.0001155, x1 = 0.0001801 | 0.4477
x2 = 0.0001247, x1 = 0.0001801 | 0.4515
x2 = 0.0001301, x1 = 0.001799 | 2.067
x2 = 0.0001324, x1 = 0.0001801 | 0.4544
x2 = 0.0001404, x1 = 0.0001801 | 0.4573
x2 = 0.000147, x1 = 0.001798 | 2.07
x2 = 0.000148, x1 = 0.0001801 | 0.4602
x2 = 0.0001566, x1 = 0.0001801 | 0.4633
x2 = 0.0001632, x1 = 0.001798 | 2.074
x2 = 0.0001658, x1 = 0.0001801 | 0.4669
x2 = 0.000175, x1 = 0.0001801 | 0.4702
x2 = 0.0001791, x1 = 0.001798 | 2.078
x2 = 0.0001842, x1 = 0.0001801 | 0.4735
x2 = 0.0001934, x1 = 0.0001801 | 0.4766
x2 = 0.0001954, x1 = 0.001798 | 2.081
x2 = 0.0002026, x1 = 0.0001801 | 0.4791
x2 = 0.0002111, x1 = 0.001798 | 2.083
x2 = 0.0002116, x1 = 0.0001801 | 0.481
x2 = 0.0002205, x1 = 0.0001801 | 0.4824
x2 = 0.0002268, x1 = 0.001798 | 2.086
x2 = 0.0002327, x1 = 0.0001801 | 0.4842
x2 = 0.0002427, x1 = 0.001798 | 2.089
x2 = 0.0002436, x1 = 0.0001801 | 0.4857
x2 = 0.0002524, x1 = 0.0001801 | 0.4866
x2 = 0.0002579, x1 = 0.001798 | 2.091
x2 = 0.0002612, x1 = 0.0001801 | 0.4876
x2 = 0.0002726, x1 = 0.0001801 | 0.489
x2 = 0.0002731, x1 = 0.001798 | 2.094
x2 = 0.0002851, x1 = 0.0001801 | 0.4902
x2 = 0.0002866, x1 = 0.001798 | 2.096
x2 = 0.0002984, x1 = 0.0001801 | 0.4919
x2 = 0.0003017, x1 = 0.001798 | 2.099
x2 = 0.0003094, x1 = 0.0001801 | 0.4931
x2 = 0.0003171, x1 = 0.001798 | 2.101
x2 = 0.0003315, x1 = 0.001798 | 2.103
x2 = 0.0003393, x1 = 0.0001801 | 0.4959
x2 = 0.0003465, x1 = 0.001798 | 2.105
x2 = 0.0003608, x1 = 0.001798 | 2.108
x2 = 0.0003754, x1 = 0.001798 | 2.11
x2 = 0.0003895, x1 = 0.001798 | 2.112
x2 = 0.000403, x1 = 0.001798 | 2.114
x2 = 0.0004205, x1 = 0.001798 | 2.117

CC(C)[C@H](NC(=O)CN)C(=O)O + CCCCCCCCCCCC[N+](C)(C)Cc1ccccc1.[Cl-] + O
electrical conductivity [S/m], 101 kPa
Settings | 293.15 K | 298.15 K | 303.15 K | 308.15 K | 313.15 K
x1 = 0.0008948, x2 = 0 | 0.00327 | 0.00375 | 0.00427 | 0.00485 | 0.0055
x1 = 0.001799, x2 = 0 | 0.00533 | 0.00608 | 0.0069 | 0.0078 | 0.00879
